How the values were obtained:
Assay in all cases: KinomeScan
Type in all cases: binding
Details in all cases: 1 μM
MST1R = biological target: T1, MST1R (Homo sapiens, UniProt Q04912)
T1 construct: purchased DiscoverX (KINOMEscan)
Procedure: (§1) Assays were performed essentially as described previously. For most assays, kinase-tagged T7 phage strains were grown in parallel in 24-well blocks in an E. coli host derived from the BL21 strain. E. coli were grown to log-phase and infected with T7 phage from a frozen stock (multiplicity of infection ~0.1) and incubated with shaking at 32 °C until lysis (~90 min). The lysates were centrifuged (6000× g) and filtered (0.2 μm) to remove cell debris. The remaining kinases were produced in HEK-293 cells and subsequently tagged with DNA for qPCR detection. […] The liganded beads were blocked with excess biotin and washed with blocking buffer (SeaBlock (Pierce, ThermoFisher Scientific, Illkirch, France), 1% BSA, 0.05% Tween 20, 1 mM DTT) to remove unbound ligand and to reduce non-specific phage binding. […] An 11-point threefold serial dilution of each test compound was prepared in 100% DMSO at 100× final test concentration which and subsequently diluted to 1× in the assay. All reactions were performed in polystyrene 96-well plates in a final volume of 0.135 mL. […] The kinase concentration in the eluates was measured by qPCR.

MAP3K2 = biological target: T2, MAP3K2 (Homo sapiens, UniProt Q9Y2U5)
T2 construct: purchased DiscoverX (KINOMEscan)
T2 sequence (Q9Y2U5 whole entry): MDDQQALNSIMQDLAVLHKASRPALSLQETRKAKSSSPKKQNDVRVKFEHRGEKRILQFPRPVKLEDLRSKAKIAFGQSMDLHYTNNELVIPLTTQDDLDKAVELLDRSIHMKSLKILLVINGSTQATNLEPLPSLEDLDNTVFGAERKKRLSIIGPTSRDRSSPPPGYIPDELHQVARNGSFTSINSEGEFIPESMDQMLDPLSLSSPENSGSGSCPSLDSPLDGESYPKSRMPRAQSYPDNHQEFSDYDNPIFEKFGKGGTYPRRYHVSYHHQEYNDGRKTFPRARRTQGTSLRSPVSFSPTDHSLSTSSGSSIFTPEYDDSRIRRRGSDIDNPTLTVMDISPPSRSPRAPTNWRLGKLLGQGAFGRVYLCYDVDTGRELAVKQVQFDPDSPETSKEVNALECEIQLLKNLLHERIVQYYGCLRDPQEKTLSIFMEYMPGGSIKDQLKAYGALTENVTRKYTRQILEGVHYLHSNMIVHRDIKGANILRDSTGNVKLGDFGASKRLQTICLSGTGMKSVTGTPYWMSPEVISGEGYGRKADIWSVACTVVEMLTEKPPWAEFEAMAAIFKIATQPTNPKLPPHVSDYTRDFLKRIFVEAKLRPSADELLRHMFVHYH
Procedure: as §1

MAPKAPK5 = biological target: T3, MAPKAPK5 (Homo sapiens, UniProt Q8IW41)
T3 construct: purchased DiscoverX (KINOMEscan)
Procedure: as §1

[1] = biological target: T4, EGFR(L747-E749del, A750P) (Homo sapiens, UniProt P00533, A750P/DEL747-749)
T4 construct: purchased DiscoverX (KINOMEscan)
T4 sequence (P00533 with tags, fused parts or gaps DEL747-749/A750P limits assumed): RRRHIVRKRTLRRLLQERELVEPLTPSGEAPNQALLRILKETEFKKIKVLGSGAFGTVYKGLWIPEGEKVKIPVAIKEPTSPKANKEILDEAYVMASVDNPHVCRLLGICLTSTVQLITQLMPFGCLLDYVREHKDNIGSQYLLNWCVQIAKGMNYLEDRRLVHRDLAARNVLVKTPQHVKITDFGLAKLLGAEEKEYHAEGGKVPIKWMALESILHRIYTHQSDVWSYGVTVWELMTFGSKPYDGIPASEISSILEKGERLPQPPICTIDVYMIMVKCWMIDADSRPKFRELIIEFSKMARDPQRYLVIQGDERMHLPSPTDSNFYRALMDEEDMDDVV
Procedure: as §1

MYO3A = biological target: T5, MYO3A (Homo sapiens, UniProt Q8NEV4)
T5 construct: purchased DiscoverX (KINOMEscan)
Procedure: as §1

TGFBR2 = biological target: T6, TGFBR2 (Homo sapiens, UniProt P37173)
T6 construct: purchased DiscoverX (KINOMEscan)
Procedure: as §1

CDC2L2 = biological target: T7, CDC2L2 (Homo sapiens, UniProt Q9UQ88)
T7 construct: purchased DiscoverX (KINOMEscan)
Procedure: as §1

FLT3 = biological target: T8, FLT3 (Homo sapiens, UniProt P36888)
T8 construct: purchased DiscoverX (KINOMEscan)
Procedure: as §1

ANKK1 = biological target: T9, ANKK1 (Homo sapiens, UniProt Q8NFD2)
T9 construct: purchased DiscoverX (KINOMEscan)
Procedure: as §1

SIK = biological target: T10, SIK (Homo sapiens, UniProt P57059)
T10 construct: purchased DiscoverX (KINOMEscan)
Procedure: as §1

AURKC = biological target: T11, AURKC (Homo sapiens, UniProt Q9UQB9)
T11 construct: purchased DiscoverX (KINOMEscan)
T11 sequence (Q9UQB9 whole entry): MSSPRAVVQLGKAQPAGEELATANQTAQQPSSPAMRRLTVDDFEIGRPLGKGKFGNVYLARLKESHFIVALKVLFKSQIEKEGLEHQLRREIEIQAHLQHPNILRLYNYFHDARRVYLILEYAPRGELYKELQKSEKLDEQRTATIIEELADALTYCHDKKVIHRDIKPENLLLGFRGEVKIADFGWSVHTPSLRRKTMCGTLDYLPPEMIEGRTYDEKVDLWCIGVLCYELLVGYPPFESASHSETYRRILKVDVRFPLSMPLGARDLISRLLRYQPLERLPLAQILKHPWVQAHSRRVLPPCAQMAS
Procedure: as §1

MET = biological target: T12, MET (Homo sapiens, UniProt P08581)
T12 construct: purchased DiscoverX (KINOMEscan)
Procedure: as §1

GSK3A = biological target: T13, GSK3A (Homo sapiens, UniProt P49840)
T13 construct: purchased DiscoverX (KINOMEscan)
Procedure: as §1

SRMS = biological target: T14, SRMS (Homo sapiens, UniProt Q9H3Y6)
T14 construct: purchased DiscoverX (KINOMEscan)
Procedure: as §1

ADCK4 = biological target: T15, ADCK4 (Homo sapiens, UniProt Q96D53)
T15 construct: purchased DiscoverX (KINOMEscan)
Procedure: as §1

FLT3(R834Q) = biological target: T16, FLT3(R834Q) (Homo sapiens, UniProt P36888, R834Q)
T16 construct: purchased DiscoverX (KINOMEscan)
Procedure: as §1

STK36 = biological target: T17, STK36 (Homo sapiens, UniProt Q9NRP7)
T17 construct: purchased DiscoverX (KINOMEscan)
Procedure: as §1

LTK = biological target: T18, LTK (Homo sapiens, UniProt P29376)
T18 construct: purchased DiscoverX (KINOMEscan)
Procedure: as §1

EGFR(S752-I759del) = biological target: T19, EGFR(S752-I759del) (Homo sapiens, UniProt P00533, DEL752-759)
T19 construct: purchased DiscoverX (KINOMEscan)
T19 sequence (P00533 with tags, fused parts or gaps DEL752-759 limits assumed): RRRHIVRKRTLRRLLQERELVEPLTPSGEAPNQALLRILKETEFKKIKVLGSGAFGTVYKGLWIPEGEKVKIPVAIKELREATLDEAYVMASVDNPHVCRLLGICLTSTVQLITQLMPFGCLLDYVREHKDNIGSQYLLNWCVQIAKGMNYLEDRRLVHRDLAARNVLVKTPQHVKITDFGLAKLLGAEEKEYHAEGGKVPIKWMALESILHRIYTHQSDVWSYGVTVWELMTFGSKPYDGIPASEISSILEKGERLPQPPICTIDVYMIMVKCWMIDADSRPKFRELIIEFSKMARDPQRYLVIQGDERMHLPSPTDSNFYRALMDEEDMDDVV
Procedure: as §1

ABL2 = biological target: T20, ABL2 (Homo sapiens, UniProt P42684)
T20 construct: purchased DiscoverX (KINOMEscan)
Procedure: as §1

SIK2 = biological target: T21, SIK2 (Homo sapiens, UniProt Q9H0K1)
T21 construct: purchased DiscoverX (KINOMEscan)
Procedure: as §1

[2] = biological target: T22, ABL1(Q252H)-phosphorylated (Homo sapiens, UniProt P00519, Q252H)
T22 construct: purchased DiscoverX (KINOMEscan)
Procedure: as §1

LZK = biological target: T23, LZK (Homo sapiens, UniProt O43283)
T23 construct: purchased DiscoverX (KINOMEscan)
Procedure: as §1

MAP4K5 = biological target: T24, MAP4K5 (Homo sapiens, UniProt Q9Y4K4)
T24 construct: purchased DiscoverX (KINOMEscan)
Procedure: as §1

PIM2 = biological target: T25, PIM2 (Homo sapiens, UniProt Q9P1W9)
T25 construct: purchased DiscoveRx (KinomeScan, San Diego, CA, USA)
T25 sequence (Q9P1W9 whole entry): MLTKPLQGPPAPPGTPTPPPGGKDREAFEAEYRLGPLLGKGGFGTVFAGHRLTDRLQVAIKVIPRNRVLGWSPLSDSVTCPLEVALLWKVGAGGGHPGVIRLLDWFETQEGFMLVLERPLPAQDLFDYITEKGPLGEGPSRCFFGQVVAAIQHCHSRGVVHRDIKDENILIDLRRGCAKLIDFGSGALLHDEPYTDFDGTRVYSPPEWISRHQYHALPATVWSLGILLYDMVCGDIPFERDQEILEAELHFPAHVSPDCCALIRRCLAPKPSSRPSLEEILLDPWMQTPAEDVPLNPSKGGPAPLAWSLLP
Procedure: as §1

[3] = biological target: T26, JAK1(JH1domain-catalytic) (Homo sapiens, UniProt P23458)
T26 construct: JAK1(JH1domain-catalytic); purchased DiscoverX (KINOMEscan)
T26 sequence (P23458 854-1154 limits assumed): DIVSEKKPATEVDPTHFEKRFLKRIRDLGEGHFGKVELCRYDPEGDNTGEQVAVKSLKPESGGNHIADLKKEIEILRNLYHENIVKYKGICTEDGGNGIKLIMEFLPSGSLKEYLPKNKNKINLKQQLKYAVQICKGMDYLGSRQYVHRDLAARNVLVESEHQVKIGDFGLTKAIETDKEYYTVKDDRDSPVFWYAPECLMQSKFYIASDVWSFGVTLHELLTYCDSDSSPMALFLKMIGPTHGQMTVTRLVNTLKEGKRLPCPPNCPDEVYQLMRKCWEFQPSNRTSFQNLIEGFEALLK
Procedure: as §1

EGFR(L861Q) = biological target: T27, EGFR(L861Q) (Homo sapiens, UniProt P00533, L861Q)
T27 construct: purchased DiscoverX (KINOMEscan)
T27 sequence (P00533 25-1210 L861Q): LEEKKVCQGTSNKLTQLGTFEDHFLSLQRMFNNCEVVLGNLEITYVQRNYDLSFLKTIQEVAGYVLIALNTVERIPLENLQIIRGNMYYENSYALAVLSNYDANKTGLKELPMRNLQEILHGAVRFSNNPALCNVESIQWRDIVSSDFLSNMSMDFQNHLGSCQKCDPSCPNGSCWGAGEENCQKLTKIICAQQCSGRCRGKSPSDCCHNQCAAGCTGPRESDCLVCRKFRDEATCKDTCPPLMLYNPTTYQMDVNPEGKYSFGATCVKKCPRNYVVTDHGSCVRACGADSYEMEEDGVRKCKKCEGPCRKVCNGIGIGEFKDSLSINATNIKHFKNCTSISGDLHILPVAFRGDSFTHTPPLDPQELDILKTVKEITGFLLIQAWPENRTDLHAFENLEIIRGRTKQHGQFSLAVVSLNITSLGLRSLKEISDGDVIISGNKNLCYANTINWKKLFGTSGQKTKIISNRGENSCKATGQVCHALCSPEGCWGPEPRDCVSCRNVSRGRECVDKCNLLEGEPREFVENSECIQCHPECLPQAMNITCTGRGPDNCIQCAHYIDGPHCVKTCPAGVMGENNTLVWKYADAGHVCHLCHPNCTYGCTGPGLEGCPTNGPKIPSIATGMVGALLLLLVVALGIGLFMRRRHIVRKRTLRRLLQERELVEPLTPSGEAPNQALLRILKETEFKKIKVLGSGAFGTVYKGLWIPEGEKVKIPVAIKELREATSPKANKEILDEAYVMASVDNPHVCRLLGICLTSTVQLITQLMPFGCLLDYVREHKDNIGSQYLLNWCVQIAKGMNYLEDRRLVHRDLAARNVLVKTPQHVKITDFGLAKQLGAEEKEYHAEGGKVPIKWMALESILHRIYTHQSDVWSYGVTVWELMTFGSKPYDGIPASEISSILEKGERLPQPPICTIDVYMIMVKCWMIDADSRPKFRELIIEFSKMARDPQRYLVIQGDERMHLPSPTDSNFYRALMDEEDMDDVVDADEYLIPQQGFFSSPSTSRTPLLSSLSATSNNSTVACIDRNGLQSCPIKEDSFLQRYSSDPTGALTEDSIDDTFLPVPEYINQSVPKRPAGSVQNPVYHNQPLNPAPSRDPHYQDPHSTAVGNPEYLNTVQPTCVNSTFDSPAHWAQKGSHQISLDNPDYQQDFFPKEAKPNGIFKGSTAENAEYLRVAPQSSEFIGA
Procedure: as §1

ERBB2 = biological target: T28, ERBB2 (Homo sapiens, UniProt P04626)
T28 construct: purchased DiscoverX (KINOMEscan)
Procedure: as §1

ASK2 = biological target: T29, ASK2 (Homo sapiens, UniProt O95382)
T29 construct: purchased DiscoverX (KINOMEscan)
Procedure: as §1

CSNK2A2 = biological target: T30, CSNK2A2 (Homo sapiens, UniProt P19784)
T30 construct: purchased DiscoverX (KINOMEscan)
Procedure: as §1

ACVRL1 = biological target: T31, ACVRL1 (Homo sapiens, UniProt P37023)
T31 construct: purchased DiscoverX (KINOMEscan)
Procedure: as §1

MYLK2 = biological target: T32, MYLK2 (Homo sapiens, UniProt Q9H1R3)
T32 construct: purchased DiscoverX (KINOMEscan)
Procedure: as §1

KIT(A829P) = biological target: T33, KIT(A829P) (Homo sapiens, UniProt P10721, A829P)
T33 construct: purchased DiscoverX (KINOMEscan)
T33 sequence (P10721 26-976 A829P): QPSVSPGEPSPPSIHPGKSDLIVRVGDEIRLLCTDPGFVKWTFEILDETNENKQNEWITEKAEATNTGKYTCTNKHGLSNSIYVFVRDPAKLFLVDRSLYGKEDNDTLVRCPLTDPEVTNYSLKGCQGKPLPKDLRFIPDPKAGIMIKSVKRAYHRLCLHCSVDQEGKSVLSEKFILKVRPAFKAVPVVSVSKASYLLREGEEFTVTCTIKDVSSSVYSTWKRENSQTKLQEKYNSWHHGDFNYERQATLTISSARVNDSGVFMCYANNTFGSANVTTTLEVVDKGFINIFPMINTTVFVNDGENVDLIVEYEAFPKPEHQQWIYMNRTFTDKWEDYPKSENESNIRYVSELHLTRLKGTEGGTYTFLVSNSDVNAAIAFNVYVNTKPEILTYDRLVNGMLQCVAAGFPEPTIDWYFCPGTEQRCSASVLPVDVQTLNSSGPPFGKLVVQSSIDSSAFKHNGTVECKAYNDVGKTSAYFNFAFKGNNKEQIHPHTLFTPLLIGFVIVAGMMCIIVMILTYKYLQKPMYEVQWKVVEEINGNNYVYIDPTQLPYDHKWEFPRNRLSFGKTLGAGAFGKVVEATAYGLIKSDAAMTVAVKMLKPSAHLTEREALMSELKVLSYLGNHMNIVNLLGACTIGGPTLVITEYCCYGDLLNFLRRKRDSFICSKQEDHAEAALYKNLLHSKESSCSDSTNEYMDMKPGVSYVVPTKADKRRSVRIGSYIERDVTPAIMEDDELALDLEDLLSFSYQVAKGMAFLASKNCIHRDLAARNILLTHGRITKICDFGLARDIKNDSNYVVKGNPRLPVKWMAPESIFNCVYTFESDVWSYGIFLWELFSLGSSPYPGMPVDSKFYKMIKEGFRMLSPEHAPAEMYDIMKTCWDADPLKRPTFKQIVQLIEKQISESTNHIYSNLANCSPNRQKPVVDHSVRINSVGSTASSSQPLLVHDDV
Procedure: as §1

MST2 = biological target: T34, MST2 (Homo sapiens, UniProt Q13188)
T34 construct: purchased DiscoverX (KINOMEscan)
T34 sequence (Q13188 whole entry): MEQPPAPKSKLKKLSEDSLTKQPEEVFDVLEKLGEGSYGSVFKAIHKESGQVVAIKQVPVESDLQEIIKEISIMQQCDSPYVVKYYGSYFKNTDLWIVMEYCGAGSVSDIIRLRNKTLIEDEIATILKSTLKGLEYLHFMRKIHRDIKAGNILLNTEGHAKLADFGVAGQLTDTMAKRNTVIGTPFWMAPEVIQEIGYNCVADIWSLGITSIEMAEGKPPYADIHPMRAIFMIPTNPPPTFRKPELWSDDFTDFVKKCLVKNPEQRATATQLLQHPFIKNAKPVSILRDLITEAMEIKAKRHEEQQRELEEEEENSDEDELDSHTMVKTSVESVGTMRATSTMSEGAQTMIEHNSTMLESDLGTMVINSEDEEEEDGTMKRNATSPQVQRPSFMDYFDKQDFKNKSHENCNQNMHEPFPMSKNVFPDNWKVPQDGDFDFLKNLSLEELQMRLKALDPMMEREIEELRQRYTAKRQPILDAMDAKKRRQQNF
Procedure: as §1

MLCK = biological target: T35, MLCK (Homo sapiens, UniProt Q32MK0)
T35 construct: purchased DiscoverX (KINOMEscan)
Procedure: as §1

## COc1cc(/C=C2\N=C(N)NC2=O)ccc1O [Polyandrocarpamine A]
MST1R
  Score: 100
MAP3K2
  Score: 100
MAPKAPK5
  Score: 100
[1]
  Score: 100
MYO3A
  Score: 100
TGFBR2
  Score: 100
CDC2L2
  Score: 100
FLT3
  Score: 100
ANKK1
  Score: 100
SIK
  Score: 100
AURKC
  Score: 99
MET
  Score: 100
GSK3A
  Score: 100
SRMS
  Score: 100
ADCK4
  Score: 98
FLT3(R834Q)
  Score: 100
STK36
  Score: 96
LTK
  Score: 100
EGFR(S752-I759del)
  Score: 100
ABL2
  Score: 87
SIK2
  Score: 94
[2]
  Score: 100
LZK
  Score: 100
MAP4K5
  Score: 100
PIM2
  Score: 21
[3]
  Score: 72
EGFR(L861Q)
  Score: 100
ERBB2
  Score: 100
ASK2
  Score: 100
CSNK2A2
  Score: 26
ACVRL1
  Score: 100
MYLK2
  Score: 95
KIT(A829P)
  Score: 91
MST2
  Score: 100
MLCK
  Score: 100

— article PMC5666424, “Marine-Derived 2-Aminoimidazolone Alkaloids. Leucettamine B-Related Polyandrocarpamines Inhibit Mammalian and Protozoan DYRK & CLK Kinases” (Marine Drugs, 2017)
